Laboratory results from US12377110B2, “Fospropofol methods and compositions” (Epalex Corporation, priority 2019, dated 2025).
Where “and” joins values, the source holds several entries; their conditions need not be identical. Equal values may be shown once. Where a name gives a salt, the structure may show the parent alone. Read-outs that look alike come from different tables or passages of the source.

Columns and labels:
[1] = XRPD after 7 days storage at 40° C./75% RH; type: physicochemical
Procedure: XRPD was again taken after 7 days storage at 40° C./75% RH. Form II of the diethylamine salt and Form II of the ethanolamine salt were formed by conversion of Form I of the respective salts after 7 days storage at 40° C./75% RH.
Form II of the calcium salt was produced from Form I of the calcium salt after 7 days storage at 40° C./75% RH.

[2] = type: physicochemical; settings: for XRPD Analysis Post Dissolution: after IDR at pH 4.5; for Average pH: during IDR run, 36 ml water and 4 ml GI media; for Average pH / IDR Average / IDR Duplicate: pH set to 4.5, 37° C.; for IDR Average / IDR Duplicate: 3 mm disc, 100 rpm; for IDR Average: average of duplicate; for IDR Duplicate: individual duplicate values
Procedure: Intrinsic Dissolution Rate was measure in GI tract buff (pH—4.5 buffer): 2.99 g sodium acetate trihydrate was dissolved in 14.0 ml 2N acetic acid in a 1000 ml volumetric flask, and then made to volume with deionised water.
(§1) Data were collected on a Sirius inform instrument fitted with a dual UV DipProbe attachment and Ag/AgCI combination pH electrode. The electrode was calibrated using the four plus parameters derived from a blank titration. The base titrant was standardised by titration with TRIS. 0.5 M HCl and NaOHaqueous solutions were used as the acid and base titrants respectively for the testing. Stirring was facilitated by a dual overhead stirrer to allow thorough mixing within the vessel, and media was introduced via a capillary bundle attached to a dispensing bank comprised of six precision dispensing units. A Peltier heating jacket was used to maintain the temperature of the titration vessel. Discs were introduced to the vessel via the tablet picker housed in the probe arm, after the desired temperature of the media had been reached. Sirius inform Assay Design, Control and Refine software were used to design, run and refine data respectively.
(§2) One MEC data sets were then collected using five additions each of the water stock using 250, 500 and three times 750 μI aliquots, respectively. UV Spectra were then collected after each addition of the water stock to build a multi-point MEC calibration, using a 20 mm path length probe. The MEC data set was then imported into the dissolution data files in order to convert the UV absorbance measured to concentration. […] MEC data were collected at 37° C. to match the dissolution experiments.
(§3) Intrinsic Dissolution Rate (IDR): Approximately. 10-20 mg of the sample was compressed in a 3 mm disc recess, under 100 kg for 2 minutes, with greaseproof paper on the compression base, to form nondisintegrating discs. The discs were then plugged with a bung so that only one surface was exposed to the media during analysis and transferred to the Sirius inform dissolution apparatus. Analysis was performed at 37° C. in 36 ml water and 4 ml GI media with the pH set to 4.5, for 1 hour with UV spectra collected every 10 seconds. A stir speed of 100 rpm was used with a 20 mm path length probe. The IDR was calculated based on the surface area of the 3 mm disc recess used (7.07 mm2 surface area). XRPD analysis was performed on all samples, both after compression of the material into the disc recess, and post dissolution analysis to observe any change in form. All analysis was performed using XRPD 2.
(§4) X-Ray Powder Diffraction (XRPD2): XRPD diffractograms were collected on a Bruker AXS C2 GADDS diffractometer using Cu Ka radiation (40 kV, 40 mA), an automated XYZ stage, a laser video microscope for auto sample positioning and a Vantec-500 2-dimensional area detector. X-ray optics consists of a single Gobel multilayer mirror coupled with a pinhole collimator of 0.3 mm. The beam divergence, i.e. the effective size of the X-ray beam on the sample, was approximately 4 mm. […] The sample was exposed to the X-ray beam for 120 seconds under ambient conditions. The software used for data collection and analysis was GADDS for Win7/XP and Diffrac Plus EVA respectively.

[3] = type: physicochemical; settings: for XRPD Analysis Post Dissolution: after IDR in faSSGf; for Average pH: during IDR run in 40 ml faSSGf media; for Average pH / IDR Average / IDR Duplicate: 37° C.; for IDR Average / IDR Duplicate: faSSGf media, 3 mm disc, 100 rpm; for IDR Average: average of duplicate; for IDR Duplicate: individual duplicate values
Procedure: Intrinsic Dissolution Rate was Determined in Simulated Intestinal Fluid at pH Base Buffer (FaSSGF):
Sodium chloride (2.0 g) and deionized water added to a 1000 ml volumetric flask, pH adjusted to 1.6 with concentrated hydrochloric […] acid, made up to volume with deionised water.
Phares SIF (simulated intestinal fluid) powder (0.06 g) was added to a 1 L volumetric flask and made to volume with base buffer.
as §1, with “Dip Probe” for “DipProbe”, “NaOH aqueous” for “NaOHaqueous”
as §2, with “were collected in the dissolution media {faSSGf) and at 37°” for “were collected at 37°”
as §3, with “10-20” for “Intrinsic Dissolution Rate (IDR): Approximately. 10-20”, “in 40” for “in 36”, “ml faSSGf” for “ml water and 4 ml GI”, “media” for “media with the pH set to 4.5,”, “every 30” for “every 10”
as §4

Row | Compound | Solid form (XRPD) after storage, starting from Form I [1] | XRPD Analysis Post Dissolution [2] | Average pH [2] | IDR Average [2] [mg/min/cm^2] | IDR Duplicate [2] | XRPD Analysis Post Dissolution [3] | Average pH [3] | IDR Average [3] [mg/min/cm^2] | IDR Duplicate [3]
1 | CC(C)c1cccc(C(C)C)c1OCOP(=O)(O)O [calcium salt of fospropofol (Form I)] | Form II |  |  |  |  |  |  |  | 
2 | Zinc |  | Amorphous | 4.5 | 0.18 | 0.19 mg/min/cm^2 and 0.18 mg/min/cm^2 | Amorphous | 1.8 | 1.3 | 1.22 mg/min/cm^2 and 1.31 mg/min/cm^2
3 | Sodium |  |  | 4.6 | 37 | 38.04 mg/min/cm^2 and 35.67 mg/min/cm^2 |  | 1.8 | 43 | 41.5 mg/min/cm^2 and 44.2 mg/min/cm^2
4 | [Mg] [Magnesium] |  | Amorphous | 4.5 | 0.46 | 0.47 mg/min/cm^2 and 0.44 mg/min/cm^2 | Amorphous | 1.8 | 1.6 | 1.51 mg/min/cm^2 and 1.67 mg/min/cm^2
5 | NCCN [Ethylene Diamine] |  | Amorphous | 4.5 | 0.77 | 0.76 mg/min/cm^2 and 0.78 mg/min/cm^2 | Amorphous | 1.6 | 1.2 | 1.16 mg/min/cm^2 and 1.29 mg/min/cm^2
6 | [Ca] [Calcium] |  | Amorphous | 4.5 | 0.44 | 0.51 mg/min/cm^2 and 0.37 mg/min/cm^2 | Amorphous | 1.8 | 1.2 | 1.15 mg/min/cm^2 and 1.14 mg/min/cm^2
